Some test systems named below: A498 renal; CCRF-CEM leukemia; HOP-62 NSCLC; HT29 colon; MALME-3M melanoma; MDA-MB-435; MDA-N; NCI-H23 lung; RPMI-8226 leukemia; SNB-19 CNS.
Holding throughout (test): growth of human tumour cells (NCI), 48 h

Structures are written as SMILES.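 1) Cells in 96-well plates. 2) Compound, 48 h, 5 concentrations. 3) Linear interpolation between surrounding doses. 4) Unreached endpoint = highest concentration. At the TGI there is no net growth.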

This is an account of results in PubChem BioAssay (NCI).

As to `CC(C)N=C(NC#N)NS(=O)(=O)c1cnccc1NC1CCCCCCC1`, the TGI with A498 renal, in the test with CCRF-CEM leukemia, with HOP-62 NSCLC, with HT29 colon, in the test on MALME-3M melanoma and in the test on MDA-MB-435 was over 100 µM throughout. In addition, the TGI in the test on MDA-N, with NCI-H23 lung, in the test with RPMI-8226 leukemia and in the test with SNB-19 CNS was over 100 µM in each case.
Consider `CCN(CC)CCCNc1c2cc(OC)ccc2nc2cccc([N+](=O)[O-])c12`, for which the TGI came out at 0.0647 µM in the test with A498 renal; 0.582 µM with CCRF-CEM leukemia; 0.412 µM in the test with HOP-62 NSCLC; 0.453 µM with HT29 colon; 0.263 µM in the test with MALME-3M melanoma; 0.229 µM in the test on MDA-MB-435. For the same compound, the TGI was 0.277 µM with MDA-N, 0.344 µM in the test with NCI-H23 lung, 0.418 µM with RPMI-8226 leukemia and 2.02 µM in the test on SNB-19 CNS.
Turning to `CCOC(=O)C(C(=O)OCC)C(=S)NC1OC(COC(C)=O)C(OC(C)=O)C(OC(C)=O)C1OC(C)=O` (stereo not given), the TGI in the test with A498 renal, with CCRF-CEM leukemia, in the test on HOP-62 NSCLC, in the test with HT29 colon, with MALME-3M melanoma and in the test on MDA-MB-435 was over 100 µM in each case. The TGI with MDA-N, in the test with NCI-H23 lung, in the test with RPMI-8226 leukemia and with SNB-19 CNS was over 100 µM in each case.
Consider `NCCCCNCCCNC(=O)c1csc(-c2nc(CCN)sc2Cl)n1`, for which the TGI in the test with A498 renal, with CCRF-CEM leukemia, with HOP-62 NSCLC, with HT29 colon, in the test on MALME-3M melanoma and in the test on MDA-MB-435 was over 100 µM each time. In addition, the TGI in the test with MDA-N, in the test on NCI-H23 lung, with RPMI-8226 leukemia and with SNB-19 CNS was over 100 µM throughout.
